Test results: patent publication US20240116910A1, “Heterocycles as WIP1 Inhibitors” (PMV Pharmaceuticals, Inc., priority 2022, published 2024)

Columns and labels:
[1] = target: recombinant His-tag Wip1(2-420) protein (amino acids #2-420) (Homo sapiens (Human), UniProt O15297); assay: Wip1(2-420) phosphatase enzyme FDP assay; format: biochemical; details: fluorescein diphosphate (FDP) substrate, RT 2 hours, fluorescence Ex485/Em535; read-out: WIP1 (Truncated 2-420) FDP Assay: IC50
[2] = target: recombinant His-tag Wip1 full length protein (amino acids #1-605) (Homo sapiens (Human), UniProt O15297); assay: Wip1 full length phosphatase enzyme FDP assay; format: biochemical; details: fluorescein diphosphate (FDP) substrate, RT 2 hours, fluorescence Ex485/Em535
recombinant His-tag Wip1 full length protein (amino acids #1-605), sequence (O15297 whole entry): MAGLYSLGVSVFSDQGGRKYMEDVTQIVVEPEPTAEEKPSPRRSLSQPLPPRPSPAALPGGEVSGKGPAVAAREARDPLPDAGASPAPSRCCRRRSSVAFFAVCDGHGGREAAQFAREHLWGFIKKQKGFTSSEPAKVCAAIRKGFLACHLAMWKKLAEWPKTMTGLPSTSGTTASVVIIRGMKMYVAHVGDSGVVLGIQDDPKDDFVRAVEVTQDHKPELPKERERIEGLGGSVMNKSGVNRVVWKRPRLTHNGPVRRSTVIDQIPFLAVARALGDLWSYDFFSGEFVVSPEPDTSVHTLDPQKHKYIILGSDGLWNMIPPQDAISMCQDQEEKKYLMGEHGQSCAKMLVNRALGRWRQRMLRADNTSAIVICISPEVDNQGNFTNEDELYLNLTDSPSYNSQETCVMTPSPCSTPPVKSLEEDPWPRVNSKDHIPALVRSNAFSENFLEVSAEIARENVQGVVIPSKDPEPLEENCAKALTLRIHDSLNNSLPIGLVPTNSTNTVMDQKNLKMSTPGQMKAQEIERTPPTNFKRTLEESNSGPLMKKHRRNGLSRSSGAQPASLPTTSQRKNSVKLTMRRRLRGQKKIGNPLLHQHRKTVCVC

recombinant His-tag Wip1(2-420) protein (amino acids #2-420), sequence (O15297 2-420): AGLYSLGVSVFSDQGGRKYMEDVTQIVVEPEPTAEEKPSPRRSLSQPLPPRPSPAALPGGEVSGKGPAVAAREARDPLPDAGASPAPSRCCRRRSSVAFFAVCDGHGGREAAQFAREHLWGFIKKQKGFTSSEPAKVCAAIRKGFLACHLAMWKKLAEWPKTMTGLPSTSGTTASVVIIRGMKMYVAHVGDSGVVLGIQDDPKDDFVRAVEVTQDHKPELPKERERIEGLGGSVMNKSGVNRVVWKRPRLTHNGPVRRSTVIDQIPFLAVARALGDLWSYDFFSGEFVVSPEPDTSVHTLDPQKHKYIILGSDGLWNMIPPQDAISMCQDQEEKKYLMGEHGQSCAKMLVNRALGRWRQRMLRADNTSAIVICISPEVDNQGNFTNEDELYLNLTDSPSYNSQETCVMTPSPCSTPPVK

Row | Compound | IC50 [1] [nM] | IC50 [2] [nM]
1 | Cc1ncc(Cl)cc1N[C@@H](C)c1ccc(C(=O)N[C@@H](CC2CCCC2)C(=O)NC(C)(C)C#N)s1 [Compound 65, (2S)-2-({5-[(1S)-1-[(5-chloro-2-methylpyridin-3-yl)amino]ethyl]thiophen-2-yl}formamido)-N-(1-cyano-1-methylethyl)-3-cyclopentylpropanamide] | 8 | 10
2 | CC[C@H](Nc1cc(Cl)cnc1C)c1ccc(C(=O)N[C@@H](CC2CCCC2)C(=O)NC23CC(C2)C3)s1 [Compound 68, (2S)-N-{bicyclo[1.1.1]pentan-1-yl}-2-({5-[(1S)-1-[(5-chloro-2-methylpyridin-3-yl)amino]propyl]thiophen-2-yl}formamido)-3-cyclopentylpropanamide] | 6 | 8
3 | COc1cc(NC(=O)[C@H](CC2CCCC2)NC(=O)c2ccc([C@H](C)Nc3cc(Cl)cnc3C)s2)ccc1F [Compound 69, (2S)-2-({5-[(1S)-1-[(5-chloro-2-methylpyridin-3-yl)amino]ethyl]thiophen-2-yl}formamido)-3-cyclopentyl-N-(4-fluoro-3-methoxyphenyl)propanamide] | 4 | 7
4 | C[C@H](Nc1cc(Cl)cnc1C1CC1)c1ccc(C(=O)N[C@@H](CC2CCCC2)C(=O)NC2CC2)s1 [Compound 70, (2S)-2-({5-[(1S)-1-[(5-chloro-2-cyclopropylpyridin-3-yl)amino]ethyl]thiophen-2-yl}formamido)-3-cyclopentyl-N-cyclopropylpropanamide] | 6 | 8
5 | C[C@@H](Nc1cc(Cl)cnc1C1CC1)c1ccc(C(=O)N[C@@H](CC2CCCC2)C(=O)NC2CC2)s1 [Compound 71, (2S)-2-({5-[(1R)-1-[(5-chloro-2-cyclopropylpyridin-3-yl)amino]ethyl]thiophen-2-yl}formamido)-3-cyclopentyl-N-cyclopropylpropanamide] | 127 | 215
6 | Cc1ncc(Cl)cc1N[C@@H](C)c1ccc(C(=O)N[C@@H](CC23CC(C2)C3)C(=O)NC2CC2)s1 [Compound 72, (2S)-3-{bicyclo[1.1.1]pentan-1-yl}-2-({5-[(1S)-1-[(5-chloro-2-methylpyridin-3-yl)amino]ethyl]thiophen-2-yl}formamido)-N-cyclopropylpropanamide] | 103 | 136
7 | Cc1cc(NC(=O)[C@H](CC2CCCC2)NC(=O)c2ccc([C@H](C)Nc3cc(Cl)cnc3C)s2)ccn1 [Compound 73, (2S)-2-({5-[(1S)-1-[(5-chloro-2-methylpyridin-3-yl)amino]ethyl]thiophen-2-yl}formamido)-3-cyclopentyl-N-(2-methylpyridin-4-yl)propanamide] | 4 | 8
8 | CNC(=O)[C@H](CC1CCCC1)NC(=O)c1ccc([C@H](C)Nc2cc(Cl)cnc2C)s1 [Compound 74, (2S)-2-({5-[(1S)-1-[(5-chloro-2-methylpyridin-3-yl)amino]ethyl]thiophen-2-yl}formamido)-3-cyclopentyl-N-methylpropanamide] | 21 | 27
9 | Cc1ncc(Cl)cc1N[C@@H](C)c1ccc(C(=O)N[C@@H](CC2CCCC2)C(=O)NC2CC(C)C2)s1 (stereo partly drawn) [Compound 76, (2S)-2-({5-[(1S)-1-[(5-chloro-2-methylpyridin-3-yl)amino]ethyl]thiophen-2-yl}formamido)-3-cyclopentyl-N-(3-methylcyclobutyl)propanamide] | 7 | 9
10 | CCNC(=O)[C@H](CC1CCCC1)NC(=O)c1ccc([C@H](C)Nc2cc(Cl)cnc2C)s1 [Compound 77, (2S)-2-({5-[(1S)-1-[(5-chloro-2-methylpyridin-3-yl)amino]ethyl]thiophen-2-yl}formamido)-3-cyclopentyl-N-ethylpropanamide] | 6 | 10
11 | CCc1ncc(Cl)cc1N[C@@H](C)c1ccc(C(=O)N[C@@H](CC2CCCC2)C(=O)NC2CC2)s1 [Compound 78, (2S)-2-({5-[(1S)-1-[(5-chloro-2-ethylpyridin-3-yl)amino]ethyl]thiophen-2-yl}formamido)-3-cyclopentyl-N-cyclopropylpropanamide] | 6 | 7
12 | CCc1ncc(Cl)cc1N[C@H](C)c1ccc(C(=O)N[C@@H](CC2CCCC2)C(=O)NC2CC2)s1 [Compound 79, (2S)-2-({5-[(1R)-1-[(5-chloro-2-ethylpyridin-3-yl)amino]ethyl]thiophen-2-yl}formamido)-3-cyclopentyl-N-cyclopropylpropanamide] | 223 | 308
13 | CC[C@H](Nc1cc(Cl)cnc1C)c1ccc(C(=O)N[C@@H](CC2CCCC2)C(=O)NC23CC(C#N)(C2)C3)s1 [Compound 80, (2S)-2-({5-[(1S)-1-[(5-chloro-2-methylpyridin-3-yl)amino]propyl]thiophen-2-yl}formamido)-N-{3-cyanobicyclo[1.1.1]pentan-1-yl}-3-cyclopentylpropanamide] | 10 | 18
14 | COc1ncc(Cl)cc1N[C@@H](C)c1ccc(C(=O)N[C@@H](CC2CCCC2)C(=O)NC23CC(C#N)(C2)C3)s1 [Compound 82, (2S)-2-({5-[(1S)-1-[(5-chloro-2-methoxypyridin-3-yl)amino]ethyl]thiophen-2-yl}formamido)-N-{3-cyanobicyclo[1.1.1]pentan-1-yl}-3-cyclopentylpropanamide] | 13 | 20
15 | Cc1ncc(Cl)cc1NC(C)c1ccc(C(=O)N[C@@H](CC2CCCC2)C(=O)NC23CC(C2)C3)s1 (stereo partly shown) [Compound 117] | 41 | 70
16 | Cc1cc(NC(=O)[C@H](CC2CCCC2)NC(=O)c2cnc([C@@H](C)Nc3cccc(Cl)c3)s2)cc(C)n1 [Compound 118, (2S)-2-({2-[(1R)-1-[(3-chlorophenyl)amino]ethyl]-1,3-thiazol-5-yl}formamido)-3-cyclopentyl-N-(2,6-dimethylpyridin-4-yl)propanamide] | 135 | 196
17 | Cc1cc(NC(=O)[C@H](CC2CCCC2)NC(=O)c2cnc([C@H](C)Nc3cccc(Cl)c3)s2)ccn1 [Compound 119, (2S)-2-({2-[(1S)-1-[(3-chlorophenyl)amino]ethyl]-1,3-thiazol-5-yl}formamido)-3-cyclopentyl-N-(2-methylpyridin-4-yl)propanamide] | 70 | 115
18 | Cc1cc(NC(=O)[C@H](CC2CCCC2)NC(=O)c2cnc([C@@H](C)Nc3cccc(Cl)c3)s2)ccn1 [Compound 120, (2S)-2-({2-[(1R)-1-[(3-chlorophenyl)amino]ethyl]-1,3-thiazol-5-yl}formamido)-3-cyclopentyl-N-(2-methylpyridin-4-yl)propanamide] | 7 | 11
19 | Cc1cc(NC(=O)[C@H](CC2CCCC2)NC(=O)c2cnc(C(C)Nc3cccc(Cl)c3)s2)ccn1 (stereo partly drawn) [Compound 121, (2S)-2-[(2-{1-[(3-chlorophenyl)amino]ethyl}-1,3-thiazol-5-yl)formamido]-3-cyclopentyl-N-(2-methylpyridin-4-yl)propanamide] | 66 | 19
20 | Cc1cc(NC(=O)[C@H](CC2CCCC2)NC(=O)c2cnc(C(C)Nc3cccc(Cl)c3)s2)cc(C)n1 (stereo partly drawn) [Compound 122, (2S)-2-[(2-{1-[(3-chlorophenyl)amino]ethyl}-1,3-thiazol-5-yl)formamido]-3-cyclopentyl-N-(2,6-dimethylpyridin-4-yl)propanamide] | 130 | 62
21 | CC(Nc1cccc(Cl)c1)c1ncc(C(=O)N[C@@H](CC2CCCC2)C(=O)NC2CC2)s1 (stereo partly drawn) [Compound 123, (2S)-2-[(2-{1-[(3-chlorophenyl)amino]ethyl}-1,3-thiazol-5-yl)formamido]-3-cyclopentyl-N-cyclopropylpropanamide] | 159 | 39
22 | C[C@@H](Nc1cccc(Cl)c1)c1ncc(C(=O)N[C@@H](CC2CCCC2)C(=O)NC2CC2)s1 [Compound 125, (2S)-2-({2-[(1R)-1-[(3-chlorophenyl)amino]ethyl]-1,3-thiazol-5-yl}formamido)-3-cyclopentyl-N-cyclopropylpropanamide] | 59 | 16
23 | COc1cc(NC(=O)[C@H](CC2CCCC2)NC(=O)c2ccc([C@H](C)Nc3cc(Cl)cnc3C)s2)ccn1 [Compound 156, (2S)-2-({5-[(1S)-1-[(5-chloro-2-methylpyridin-3-yl)amino]ethyl]thiophen-2-yl}formamido)-3-cyclopentyl-N-(2-methoxypyridin-4-yl)propanamide] | 4 | 9
24 | Cc1ncc(Cl)cc1N[C@@H](C)c1ccc(C(=O)N[C@@H](CCC(C)(C)C)C(=O)Nc2cnn(C)c2)s1 [Compound 160, (2S)-2-({5-[(1S)-1-[(5-chloro-2-methylpyridin-3-yl)amino]ethyl]thiophen-2-yl}formamido)-5,5-dimethyl-N-(1-methyl-1H-pyrazol-4-yl)hexanamide] | 9 | 13
25 | CCn1cc(NC(=O)[C@H](CC2CCCC2)NC(=O)c2ccc([C@H](C)Nc3cc(Cl)cnc3C)s2)cn1 [Compound 162, (2S)-2-({5-[(1S)-1-[(5-chloro-2-methylpyridin-3-yl)amino]ethyl]thiophen-2-yl}formamido)-3-cyclopentyl-N-(1-ethyl-1H-pyrazol-4-yl)propanamide] | 6 | 8
26 | Cc1ncc(Cl)cc1N[C@@H](C)c1ccc(C(=O)N[C@@H](CC2CCCC2)C(=O)Nc2cnn(C3CCOCC3)c2)s1 [Compound 163, (2S)-2-({5-[(1S)-1-[(5-chloro-2-methylpyridin-3-yl)amino]ethyl]thiophen-2-yl}formamido)-3-cyclopentyl-N-[1-(oxan-4-yl)-1H-pyrazol-4-yl]propanamide] | 5 | 8
